# According to article PMC11965977, “Selective Antiproliferative and Apoptotic Effects of 2,6‐Diketopiperazines on MDA‐MB‐231 Triple‐Negative Breast Cancer” (Chemical Biology & Drug Design, 2025):
# Key:
# Format in all cases: cell-based
# [1] = tested on: MDA‐MB‐231 triple‐negative breast cancer cells; assay: Antiproliferative activity by MTT assay on MDA‐MB‐231 cell line; details: Homo sapiens, 24 h treatment, 1% DMSO, mean ± standard deviation of three separate determinations, read-out: IC50 of inhibitory activity on MDA‐MB‐231 triple‐negative breast cancer cells
# Procedure: The antiproliferative activity of 2,6‐diketopiperazines 1, stereoisomers (S)‐2a‐14a, and (R)‐2b‐4b, 6b‐8b, and 11b‐14b was evaluated by the MTT assay on the MDA‐MB‐231 cell line using TSA as positive control at 50 μM. […] Compounds 1 and both (S) and (R) enantiomers reveal differences in their inhibitory effects.
# (§1) Cell lines of the MDA‐MB‐231 of TNBC and VERO from healthy kidney cells used in this work were donated by ‘National Institute of Cancerology of the Ministry of Health’ from Mexico. MDA‐MB‐231 and Vero cells preserved at −70°C in DMEM F12 medium Gibco, 10% FBS, 5% DMSO, and 5% glycerol were thawed at 37°C and resuspended in DMEM F12 medium, supplemented with 10% FBS and antibiotic (penicillin 100 UI/mL, streptomycin 100 μg/mL and amphotericin 250 μg/mL) and then centrifuged at 2000 rpm for 10 min. The supernatant was removed, and the cells were resuspended in DMEM F12 medium, supplemented with 10% FBS and antibiotic, seeded in 25 cm^2 culture flasks Corning, and incubated at 37°C with 5% CO2 until at least 90% confluence was reached.
# (§2) The MTT assay was used to measure metabolically active cells. Cells were seeded into 96‐well microtiter plates Corning at […] in 100 μL of DMEM‐F12 medium supplemented with 10% FBS and antibiotic Gibco (penicillin 100 IU/mL, streptomycin 100 μg/mL and amphotericin 250 μg/mL). After reaching confluence, cells were treated for 24 h with compounds 1, (S)‐2–14 and (R)‐2–4, 6–8, 11–14 stereoisomers, at concentrations of […], 0.00229, 0.0073, 0.0243, 0.081, 0.27, 0.9, 3.0, 10.0, and 12.0 mM at 1% DMSO, with compounds 1, (S)‐2a, ‐4a, and ‐5a at concentrations of 0.00066, 0.00229, 0.0073, 0.0243, 0.081, 0.27, 0.9, 3.0,10.0, and 12 mM at 1% DMSO, using DMSO 1% in DMEM F12 as the negative control and TSA as the positive control at 50 μM (Sanaei and Kavoosi [2020]). Post‐treatment, cell viability was measured by the conventional MTT dye‐reduction assay. Thus, 20 μL of MTT reagent (5 mg/mL) in PBS 1X was added to each well and incubated at 37 °C for 4 h. Viable cells with active mitochondria reduced the MTT to an insoluble purple formazan precipitate that was solubilized with the subsequent addition of 50 μL of DMSO. The formazan dye was measured spectrophotometrically using a microplate reader Molecular Devices. The cytotoxic impact of each treatment was quantified by determining cell viability as a percentage relative to untreated control cells, referred to as the percentage of control. This is calculated using the formula: [(A595 or A570 nm reading of treated cells)/(A595 or A570 nm reading of untreated cells)] × 100 (Mosmann [1983]; Plumb [1999]). All assays were performed in triplicate. Cell proliferation percentages relative to growth control cells were calculated, and inhibitory concentration 50 (IC50) values were calculated using a regression analysis of the concentration/antiproliferative activity ratio and analyzed using the statistical package prism (Graph‐Pad Software, San Diego, CA, USA).
# [2] = Cytotoxicity by MTT assay on healthy Vero kidney cell line; details: African green monkey, Vero kidney cells (healthy), even at 12 mM concentrations (data not shown)
# Procedure: (§3) Compounds 1, (S)‐2a, −4a, and ‐5a presented the lowest IC50 values of all the compounds tested (see Table 1), so it was interesting to investigate their toxicity in healthy cells.
# as §1, §2
# [3] = tested on: Vero kidney cell line; assay: as above; details: concentrations 0.00066 to 12 mM
# Procedure: as §3, §1, §2
# [4] = tested on: MDA‐MB‐231 cell line; assay: Apoptotic induction by Annexin V‐FITC/7AAD flow cytometry on MDA‐MB‐231 cell line; details: MDA‐MB‐231, compound at its IC50 concentration
# Source text: This work presents the apoptotic induction of the 2,6‐DKPs 1, (S)‐stereoisomers 2a to 6a derived from Gly, Ala, Val, Leu, Ile, and Pro α‐amino acids, respectively; as well as 9a to 14a derived from Tyr, Tyr (where the OH group is protected with an acetamide group), Ser, Thr, Met, and Trp α‐amino acids, respectively on the MDA‐MB‐231 cell line by flow cytometry. In this assay, 1% DMSO was used as a negative control and TSA as a positive control (Figure 2). The inhibition of proliferation may be due, among other mechanisms, to arrest in the cell cycle, and/or to an induction of cell death. In the second case, it is important to differentiate whether this death is necrotic inflammatory or apoptotic non‐inflammatory, which is desirable for anti‐cancer agents. […]
# FIGURE 5 Flow Cytometry Analysis Strategy. […] A total of 5000/seg events were analyzed for each group.
# Assays were performed using the commercial kit Annexin V labeled with the fluorochrome fluorescein isothiocyanate (FITC) BD Biosciences. […] After incubation time, the quantification of MDA‐MB‐231 cells was performed by flow cytometry with a FITC and 7AAD signal detector (FL1) and (FL3) on a FACS aria (Becton Dickinson). 5000/seg events were analyzed. Apoptotic induction percentages were calculated (Graph‐Pad Software, San Diego, CA, USA).
SMILES,IC50 [1] [µM],other results
CC(C)C[C@H]1NCC(=O)NC1=O [(R)‐4b],265,
O=C1CN2CCC[C@H]2C(=O)N1 [(S)‐6a],1020 ± 167,
C[C@H]1NCC(=O)NC1=O [(R)‐2b],21,
CC(C)[C@H]1NCC(=O)NC1=O [(R)‐3b],822 ± 1350,
O=C1CN[C@H](CO)C(=O)N1 [(R)‐11b],801 ± 208,
O=C1CN[C@@H](CO)C(=O)N1 [(S)‐11a],49 ± 26,
CC(C)C[C@@H]1NCC(=O)NC1=O [(S)‐4a],5.5 ± 0.235,"viability at 24 h, 12 mM [2]: 100%; Toxicity on Vero kidney cell line (in words) [3]: did not exhibit toxicity"
O=C1CN[C@@H](Cc2c[nH]c3ccccc23)C(=O)N1 [(S)‐14a],12,
CSCC[C@@H]1NCC(=O)NC1=O [(S)‐13a],978 ± 96,
CC(O)[C@@H]1NCC(=O)NC1=O (stereo partly drawn) [(S)‐12a],2100 ± 249,Decrease in apoptotic induction at 48 h compared to the 24 h test [4]: 3%
O=C1CN[C@@H](Cc2ccccc2)C(=O)N1 [(S)‐7a],155 ± 322,
O=C1CN[C@@H](Cc2ccc(OCc3ccccc3)cc2)C(=O)N1 [(S)‐8a],4940 ± 733,
O=C1CN[C@H](Cc2c[nH]c3ccccc23)C(=O)N1 [(R)‐14b],357 ± 190,
O=C1CN[C@H](Cc2ccc(OCc3ccccc3)cc2)C(=O)N1 [(R)‐8b],3640 ± 1220,
NC(=O)COc1ccc(C[C@@H]2NCC(=O)NC2=O)cc1 [(S)‐10a],469 ± 860,
CCC(C)[C@@H]1NCC(=O)NC1=O (stereo partly drawn) [(S)‐5a],6.8 ± 0.028,"viability at 24 h, 12 mM [2]: 100%; Toxicity on Vero kidney cell line (in words) [3]: did not exhibit toxicity"
O=C1CN2CCC[C@@H]2C(=O)N1 [(R)‐6b],584 ± 1010,
O=C1CN[C@@H](Cc2ccc(O)cc2)C(=O)N1 [(S)‐9a],1669 ± 11,
O=C1CNCC(=O)N1 [Compound 1],4.6 ± 0.019,"viability at 24 h, 12 mM [2]: 100%; Toxicity on Vero kidney cell line (in words) [3]: did not exhibit toxicity"
CC(O)[C@H]1NCC(=O)NC1=O (stereo partly drawn) [(R)‐12b],1720 ± 85,
CSCC[C@H]1NCC(=O)NC1=O [(R)‐13b],1310 ± 284,
CC(C)[C@@H]1NCC(=O)NC1=O [(S)‐3a],17,
C[C@@H]1NCC(=O)NC1=O [(S)‐2a],4.6 ± 0.169,"viability at 24 h, 12 mM [2]: 100%; Toxicity on Vero kidney cell line (in words) [3]: did not exhibit toxicity"
O=C1CN[C@H](Cc2ccccc2)C(=O)N1 [(R)‐7b],2150 ± 202,
